Experimental data as given in patent publication US10973912B2, “Treatment for myopathy” (Children's Medical Center Corporation, priority 2015, dated 2021).
Where “and” joins values, the source holds several entries; their conditions need not be identical. Identical values can stand only once. Counter-ions that a name gives are not always drawn.

How the values were obtained:
[1] = tested on: ryr1b homozygous mutant zebrafish; experiment: Secondary screen of individual chemicals in ryr1b zebrafish (vitality: survival and touch-evoked escape behavior); format: in vivo, zebrafish (Danio rerio); parameters: key: vitality score, theoretical range 0–60; DMSO controls expected ~50; conditions: 2.0 μg/mL from 1 dpf, scored at 5 dpf; average of two replicates of 20 larvae from heterozygous ryr1b matings; score=(#Dead*0)+(#ryr1b*1)+(#Moderate*2)+(#Wild-type*3), max 60, expected 50 in DMSO controls
Description: Each scored compound represents an average of two replicates, consisting of 20 larvae from heterozygous ryr1b matings (n=40). Larvae obtained from wild-type AB matings served as positive controls. […] Significance was determined by pairwise comparisons between control and experimental pools using a Student's t-test. Vitality score=(#Dead*0)+(#ryr1b*1)+(#Moderate*2)+(#Wild-type*3). Standard deviations shown for positive and negative controls were calculated based on results from 5 and 21 independent experiments, respectively.
Primary screen. For the primary screen, twenty embryos (1 dpf) resulting from a mating of heterozygous ryr1b zebrafish were manually sorted into 48-well plates containing 250 μL embryo 1×E3 medium (5.0 mM NaCl, 0.17 mM KCl, 0.33 mM CaCl2*2H2O, 0.33 mM MgSO4*7H2O) and four pooled chemicals from the Prestwick2 chemical library. Each chemical pool was assayed in duplicate using embryos from two independent clutches, for a total of 24 distinct pools tested per plate (FIG. 1). The chemicals were dissolved to a final concentration of 2.0 μg/mL and 0.4% DMSO, which is similar to concentrations other groups have used in zebrafish studies^37,38. As a negative control, twenty embryos from each clutch were cultured without chemicals in vehicle only (0.4% DMSO) (FIG. 1). Larvae obtained from wild-type (Oregon AB) matings served as positive controls in separate plates. All plates containing embryos were incubated at 28.5° C. and maintained as initially treated for 5 days. Dead embryos were removed from wells when observed during the first 4 days of the study. On day 5, dead or “motion-dead” larvae were scored alongside living larvae.
At 5 dpf, pools were scored for their ability to improve the survival and touch-evoked escape behaviors of ryr1b homozygous mutants using the following numeric scoring system: 3=4-6 cm, fast (wild-type); 2=2-4 cm (moderate); 1=<2 cm, slow (ryr1b); 0=no movement (dead) (FIG. 2A). Survival, swimming, and combined endpoints of the primary screen were then examined for their ability to distinguish positive from negative controls. […] Taking into account both experimental replicates (n=40), hit pools contained at least 37 alive larvae on day 5 (i.e., 70-100% of the larvae assumed to be ryr1b mutants survived the duration of the study), and were selected for analysis in a secondary screen.
In the secondary screen, hit pools were separated and tested as 68 individual chemicals. Screening was performed precisely as described for the primary screen with few modifications. Embryos were raised in wells containing 750 μL 1×E3 medium, as opposed to 250 μL, although the final concentration of each compound was maintained at 2.0 μg/mL. […] Vitality scores, weighting survival and swimming ratios appropriately, were calculated as (#Dead*0)+(#ryr1b*1)+(#Moderate*2)+(#Wild-type*3). Theoretical maximum and minimum scores were 60 and 0, respectively, with an expected score of 50 in DMSO-treated controls. Secondary screen hits (P<0.05), considered “candidate” compounds, are currently being examined in dose-response and long-term studies.
The second tier of the chemical screen was performed two years following the primary screen, with a fully established ryr1b^+/− line. Healthier clutches tended to result in better survival of homozygous ryr1b mutants. Median mutant life spans more accurately adhered to the 7-15 day estimate previously published^30. Therefore, in the secondary screen, hit chemical pools were separated into individual compounds and each of 68 total compounds was examined for its ability to positively influence both ryr1b survival and motor function (referred to in combination as “vitality”). […] These included two anti-inflammatory agents (sulfasalazine and ketoprofen), two monoamine oxidase inhibitors (pargyline hydrochloride and tranylcypromine hydrochloride), and two ion channel modulators (metolazone and nimodipine).

IL-6 [2] = conditions: in vitro; cited from earlier work
[3] = tested on: ryr1b homozygous mutant zebrafish; format: in vivo, zebrafish (Danio rerio); conditions: for touch-evoked escape behaviors / mobility of ryr1b mutants: treated from 1 dpf, scored and genotyped at 5 dpf
Description: In two independent experiments, two pools of 20 larvae from heterozygous ryr1b matings were treated with DMSO or with one of three different concentrations of NIF (1.0-100.0 μg/mL) at 1 dpf and evaluated in terms of touch-evoked escape behaviors at 5 dpf (n=40). Following phenotypic scoring, all living embryos were genotyped using three-primer genomic PCR. Swimming scores for larvae genotype-confirmed as ryr1b homozygous mutants are shown as a percentage of the total number of living larvae in each dose category: 1=poor swimming; 2 or 3=moderate or wild-type swimming. NIF improved mobility of ryr1b mutants at a dose of 10 μg/mL. […] Phospho-Stat3 band intensities were normalized to β-Actin control bands and quantified in Image J (NIH).
FIGS. 12A-12C show a ketoprofen dose-response and proposed mechanistic link. […] FIG. 12B is a dose-response graph for ketoprofen (KETO). Two pools of 20 larvae from heterozygous ryr1b matings were treated with DMSO or four different concentrations of KETO (1.0-100.0 μg/mL) at 1 dpf and evaluated in terms of touch-evoked escape behaviors at 5 dpf (n=40). Following phenotypic scoring, all living embryos were genotyped using three-primer genomic PCR. Swimming scores for larvae genotype-confirmed as ryr1b homozygous mutants are shown as a percentage of the total number of living larvae in each dose category: 1=poor swimming, 2 or 3=moderate or wild-type swimming. […] Phosphorylated STATs form dimers, translocate to nuclei, and from there are associated with various transcriptional activities. Dubowitz, V. and Sewry, C. (2006) Muscle Biopsy: A Practical Approach. Elsevier-Health Sciences Division.
The relatively relaxed zebrafish was initially identified due to a spontaneous autosomal recessive mutation within the ryr1b gene^30. Specifically, ryr1b mutants carry a 4046 base pair (bp) DNA insertion in the intron between exons 48 and 49 that includes an additional 32 bp sequence found in mutant cDNA (FIG. 3)^30. Genotypes of individual embryos were examined using three-primer genomic PCR, with an expected wild-type band of 1,668 bp and a mutant band of 653 bp. Primer sequences were as follows: ryr1b #1 (forward): 5′-[…]-3′ (SEQ ID NO: 4); ryr1b #2 (reverse): 5′-[…]-3′ (SEQ ID NO: 5); and ryr1b #3 (reverse): 5′-[…]-3′ (SEQ ID NO: 6).
The primary and secondary screens only tested chemical pools and individual compounds at a single concentration (2.0 μg/mL). Although beneficial in a high-throughput context, this approach can result in false positives and false negatives. […] For analysis, pools of 20 larvae obtained from heterozygous ryr1b matings were treated in duplicate with DMSO or with one of three different concentrations of NIF (1.0-100.0 μg/mL) at 1 dpf and scored for touch-evoked escape behaviors at 5 dpf. All scored larvae were then genotyped using three-primer genomic PCR. […] Next, hit expansion was used to verify JAK-STAT as a potential molecular pathway involved in ryr1b mutant pathology. […] A higher effective dose for 5,15-DPP was consistent with the IC50 measurements reported for each compound^40,41.

ryr1b phenotype = conditions: zebrafish, in vivo; cited from earlier work
[4] = tested on: satellite cell expansion and muscle generation; conditions: in vitro and in mice, aging and dystrophic mouse models; cited from earlier work
IL-6 [5] = conditions: skeletal muscle; cited from earlier work
[6] = tested on: myofiber apoptosis and muscle strength; conditions: mouse, in vivo; cited from earlier work

| SMILES | Vitality Score [1] | also measured |
| --- | --- | --- |
| CC(C(=O)O)c1cccc(C(=O)c2ccccc2)c1 (stereo not drawn) [Ketoprofen] | 52.0 | production of IL-6 (IL-6 [2]): inhibits the production of IL-6 in vitro; touch-evoked escape behaviors / mobility of ryr1b mutants [3]: confirmed a relationship between ketoprofen and improvements in ryr1b mobility |
| N[C@@H]1C[C@H]1c1ccccc1 [Tranylcypromine hydrochloride] | 52.0 |  |
| Cc1ccccc1N1C(=O)c2cc(S(N)(=O)=O)c(Cl)cc2NC1C (stereo not drawn) [Metolazone] | 55.5 |  |
| COCCOC(=O)C1=C(C)NC(C)=C(C(=O)OC(C)C)C1c1cccc([N+](=O)[O-])c1 (stereo not drawn) [Nimodipine] | 52.0 |  |
| Clc1ccc(COC(Cn2ccnc2)c2ccc(Cl)cc2Cl)c(Cl)c1 (stereo not drawn) [Miconazole] | 54.0 |  |
| Clc1ccccc1CN1CCc2sccc2C1 [Ticlopidine hydrochloride] | 54.0 |  |
| CC(=O)N(CC(O)CO)c1c(I)c(C(=O)NCC(O)CO)c(I)c(C(=O)NCC(O)CO)c1I (stereo not drawn) [Iohexol] | 53.5 |  |
| CCCCOc1cc(C(=O)OCCN(CC)CC)ccc1N [Benoxinate hydrochloride] | 52.5 |  |
| CC(=O)N[C@@H](CS)C(=O)O [N-acetylcysteine] |  | effect on ryr1b phenotype (ryr1b phenotype): shown to ameliorate select aspects of the ryr1b phenotype |
| N#C/C(=C/c1ccc(O)c(O)c1)C(=O)NCc1ccccc1 [AG490] |  | satellite cell expansion and muscle generation [4]: promotes satellite cell expansion and rescues defects in muscle generation |
| CN(C)C/C=C(/c1ccc(Br)cc1)c1cccnc1 [Zimelidine dihydrochloride monohydrate] | 55.0 |  |
| O=C(O)c1cc(/N=N/c2ccc(S(=O)(=O)Nc3ccccn3)cc2)ccc1O [Sulfasalazine] | 57.0 | IL-6 release (IL-6 [5]): inhibit IL-6 release in skeletal muscle |
| C1=Cc2nc1cc1ccc([nH]1)c(-c1ccccc1)c1nc(cc3ccc([nH]3)c2-c2ccccc2)C=C1 [5,15-DPP, 5,15-diphenylporphyrin] |  | satellite cell expansion and muscle generation [4]: promotes satellite cell expansion and rescues defects in muscle generation; genotyped ryr1b larvae in treated pools (evidence of toxicity) ([3]; 5 dpf, 25% mutants expected): less than 25%; dose that improved mobility of ryr1b mutants / optimal activity ([3]; treated at 1 dpf, touch-evoked escape behaviors at 5 dpf, tested 1.0-100.0 μg/mL): 100.0 µg/mL and 100 µg/mL; touch-evoked escape behaviors / mobility of ryr1b mutants [3]: ryr1b mutants were among larvae that exhibited wild-type touch-evoked escape behaviors |
| C#CCN(C)Cc1ccccc1 [Pargyline hydrochloride] | 58.0 | myofiber apoptosis and muscle strength [6]: significantly decreases myofiber apoptosis and increases muscle strength |
